Laboratory results: ChEMBL document CHEMBL5724914, “Linking interpersonal differences in gut microbiota composition and drug biotransformation activity” (2024)

Assays:
[1] = (§1) The drug is tested on Z-005 corresponding to metagenome with ENA study accession number: PRJEB37062 and ENA sample accession number: ERS12561805 for biotransformation under anaerobic condition. The drug concentrations were measured over 9 timepoints collected between 0 and 24 hours of incubation by liquid-chromatography-coupled mass spectrometry (LC–MS); conditions: 2 µM
[2] = human gut metagenome, 24 h, 2 µM
[3] = (§2) The drug is tested on Z-013 corresponding to rabbit gut metagenome with ENA study accession number: PRJEB37062 and ENA sample accession number: ERS12561813 for biotransformation under anaerobic condition. The drug concentrations were measured over 9 timepoints collected between 0 and 24 hours of incubation by liquid-chromatography-coupled mass spectrometry (LC–MS); conditions: 2 µM
[4] = as §2, with “WLS-170” for “Z-013”, “human” for “rabbit”, “ERS12561762” for “ERS12561813”; conditions: 2 µM
[5] = as §1, with “Z-023” for “Z-005”, “ERS12561822” for “ERS12561805”; conditions: 2 µM
[6] = human gut metagenome, 24 h, 2 µM; remark: listed apart in the source
[7] = as §2, with “WLS-098” for “Z-013”, “human” for “rabbit”, “ERS12561754” for “ERS12561813”; conditions: 2 µM
[8] = as §2, with “WLS-086” for “Z-013”, “human” for “rabbit”, “ERS12561752” for “ERS12561813”; conditions: 2 µM
[9] = human gut metagenome, 24 h, 2 µM; remark: listed apart in the source
[10] = as §2, with “WLS-370” for “Z-013”, “human” for “rabbit”, “ERS12561793” for “ERS12561813”; conditions: 2 µM
[11] = as §2, with “Z-028” for “Z-013”, “mouse” for “rabbit”, “ERS12561827” for “ERS12561813”; conditions: 2 µM
[12] = human gut metagenome, 24 h, 2 µM; remark: listed apart in the source
[13] = as §2, with “Z-018” for “Z-013”, “pig” for “rabbit”, “ERS12561817” for “ERS12561813”; conditions: 2 µM
[14] = as §2, with “WLS-010” for “Z-013”, “human” for “rabbit”, “ERS12561743” for “ERS12561813”; conditions: 2 µM
[15] = as §1, with “Z-021” for “Z-005”, “ERS12561820” for “ERS12561805”; conditions: 2 µM
[16] = human gut metagenome, 24 h, 2 µM; remark: listed apart in the source
[17] = as §2, with “WLS-082” for “Z-013”, “human” for “rabbit”, “ERS12561751” for “ERS12561813”; conditions: 2 µM
[18] = as §2, with “Z-006” for “Z-013”, “mouse” for “rabbit”, “ERS12561806” for “ERS12561813”; conditions: 2 µM
[19] = as §1, with “Z-010” for “Z-005”, “ERS12561810” for “ERS12561805”; conditions: 2 µM
[20] = human gut metagenome, 24 h, 2 µM; remark: listed apart in the source
Note: call rule not given here.

SMILES	Bacterial Biotransformation [1]	Bacterial Biotransformation [2]	Bacterial Biotransformation [3]	Bacterial Biotransformation [4]	Bacterial Biotransformation [5]	Bacterial Biotransformation [6]	Bacterial Biotransformation [7]	Bacterial Biotransformation [8]	Bacterial Biotransformation [9]	Bacterial Biotransformation [10]	Bacterial Biotransformation [11]	Bacterial Biotransformation [12]	Bacterial Biotransformation [13]	Bacterial Biotransformation [14]	Bacterial Biotransformation [15]	Bacterial Biotransformation [16]	Bacterial Biotransformation [17]	Bacterial Biotransformation [18]	Bacterial Biotransformation [19]	Bacterial Biotransformation [20]
CCN(CC)CCOC(=O)C1(C2CCCCC2)CCCCC1 [DICYCLOMINE]	Compound NOT metabolized	Compound metabolized	Compound NOT metabolized	Compound metabolized	Compound metabolized	Compound metabolized	Compound NOT metabolized	Compound metabolized	Compound NOT metabolized	Compound NOT metabolized	Compound NOT metabolized	Compound metabolized	Compound NOT metabolized	Compound metabolized	Compound NOT metabolized	Compound metabolized	Compound metabolized	Compound NOT metabolized	Compound metabolized	Compound metabolized
COc1ccc([C@@H]2Sc3ccccc3N(CCN(C)C)C(=O)[C@@H]2OC(C)=O)cc1 [DILTIAZEM]	Compound NOT metabolized	Compound metabolized	Compound NOT metabolized	Compound metabolized	Compound metabolized	Compound metabolized	Compound metabolized	Compound metabolized	Compound NOT metabolized	Compound metabolized	Compound metabolized	Compound metabolized	Compound metabolized	Compound metabolized	Compound NOT metabolized	Compound metabolized	Compound metabolized	Compound NOT metabolized	Compound metabolized	Compound NOT metabolized
OCCN(CCO)c1nc(N2CCCCC2)c2nc(N(CCO)CCO)nc(N3CCCCC3)c2n1 [DIPYRIDAMOLE]	Compound metabolized	Compound metabolized	Compound NOT metabolized	Compound metabolized	Compound metabolized	Compound metabolized	Compound metabolized	Compound metabolized	Compound NOT metabolized	Compound metabolized	Compound NOT metabolized	Compound metabolized	Compound metabolized	Compound metabolized	Compound metabolized	Compound metabolized	Compound NOT metabolized	Compound NOT metabolized	Compound metabolized	Compound NOT metabolized
COc1cc2nc(N3CCN(C(=O)C4COc5ccccc5O4)CC3)nc(N)c2cc1OC.CS(=O)(=O)O (stereo not given) [DOXAZOSIN MESYLATE]	Compound metabolized	Compound metabolized	Compound metabolized	Compound metabolized	Compound metabolized	Compound metabolized	Compound metabolized	Compound metabolized	Compound NOT metabolized	Compound metabolized	Compound NOT metabolized	Compound metabolized	Compound metabolized	Compound metabolized	Compound NOT metabolized	Compound NOT metabolized	Compound metabolized	Compound NOT metabolized	Compound metabolized	Compound metabolized
CN(C)CCOC(C)(c1ccccc1)c1ccccn1.O=C(O)CCC(=O)O (stereo not given) [DOXYLAMINE SUCCINATE]	Compound NOT metabolized	Compound NOT metabolized	Compound NOT metabolized	Compound NOT metabolized	Compound NOT metabolized	Compound NOT metabolized	Compound NOT metabolized	Compound NOT metabolized	Compound NOT metabolized	Compound NOT metabolized	Compound NOT metabolized	Compound NOT metabolized	Compound NOT metabolized	Compound NOT metabolized	Compound NOT metabolized	Compound NOT metabolized	Compound NOT metabolized	Compound NOT metabolized	Compound NOT metabolized	Compound NOT metabolized
Br.CN1CCC[C@@H]1Cc1c[nH]c2ccc(CCS(=O)(=O)c3ccccc3)cc12 [ELETRIPTAN HYDROBROMIDE]	Compound NOT metabolized	Compound NOT metabolized	Compound NOT metabolized	Compound metabolized	Compound NOT metabolized	Compound NOT metabolized	Compound metabolized	Compound metabolized	Compound NOT metabolized	Compound NOT metabolized	Compound NOT metabolized	Compound metabolized	Compound NOT metabolized	Compound metabolized	Compound NOT metabolized	Compound NOT metabolized	Compound NOT metabolized	Compound NOT metabolized	Compound NOT metabolized	Compound NOT metabolized
CCOc1ccc2nc(S(N)(=O)=O)sc2c1 [ETHOXZOLAMIDE]	Compound NOT metabolized	Compound NOT metabolized	Compound NOT metabolized	Compound metabolized	Compound NOT metabolized	Compound NOT metabolized	Compound metabolized	Compound metabolized	Compound NOT metabolized	Compound NOT metabolized	Compound NOT metabolized	Compound NOT metabolized	Compound NOT metabolized	Compound NOT metabolized	Compound metabolized	Compound NOT metabolized	Compound NOT metabolized	Compound NOT metabolized	Compound NOT metabolized	Compound NOT metabolized
CC(C)(C)NC(=O)[C@H]1CC[C@H]2[C@@H]3CC[C@H]4NC(=O)C=C[C@]4(C)[C@H]3CC[C@]12C [FINASTERIDE]	Compound metabolized	Compound metabolized	Compound metabolized	Compound metabolized	Compound metabolized	Compound metabolized	Compound metabolized	Compound metabolized	Compound metabolized	Compound metabolized	Compound metabolized	Compound metabolized	Compound metabolized	Compound metabolized	Compound NOT metabolized	Compound metabolized	Compound metabolized	Compound metabolized	Compound metabolized	Compound metabolized
